Measurements reported in patent US20230041743A1, “1,8-NAPHTHYRIDIN-2-ONE COMPOUNDS FOR THE TREATMENT OF AUTOIMMUNE DISEASE” (Hoffmann-La Roche Inc., priority 2019, published 2023).

Assays:
human TLR8 = target: T1, human TLR8 (Homo sapiens, UniProt Q9NR97); test: HEK293-Blue-hTLR-8 cells assay (SEAP reporter, R848 stimulation); format: cell-based; conditions: HEK293-Blue-hTLR8 cells, R848 ligand, 20 hrs incubation; read-out: HEK/hTLR8 IC50
T1 construct: host or cells: HEK293 (HEK-Blue hTLR8)
T1 sequence (Q9NR97 27-1041): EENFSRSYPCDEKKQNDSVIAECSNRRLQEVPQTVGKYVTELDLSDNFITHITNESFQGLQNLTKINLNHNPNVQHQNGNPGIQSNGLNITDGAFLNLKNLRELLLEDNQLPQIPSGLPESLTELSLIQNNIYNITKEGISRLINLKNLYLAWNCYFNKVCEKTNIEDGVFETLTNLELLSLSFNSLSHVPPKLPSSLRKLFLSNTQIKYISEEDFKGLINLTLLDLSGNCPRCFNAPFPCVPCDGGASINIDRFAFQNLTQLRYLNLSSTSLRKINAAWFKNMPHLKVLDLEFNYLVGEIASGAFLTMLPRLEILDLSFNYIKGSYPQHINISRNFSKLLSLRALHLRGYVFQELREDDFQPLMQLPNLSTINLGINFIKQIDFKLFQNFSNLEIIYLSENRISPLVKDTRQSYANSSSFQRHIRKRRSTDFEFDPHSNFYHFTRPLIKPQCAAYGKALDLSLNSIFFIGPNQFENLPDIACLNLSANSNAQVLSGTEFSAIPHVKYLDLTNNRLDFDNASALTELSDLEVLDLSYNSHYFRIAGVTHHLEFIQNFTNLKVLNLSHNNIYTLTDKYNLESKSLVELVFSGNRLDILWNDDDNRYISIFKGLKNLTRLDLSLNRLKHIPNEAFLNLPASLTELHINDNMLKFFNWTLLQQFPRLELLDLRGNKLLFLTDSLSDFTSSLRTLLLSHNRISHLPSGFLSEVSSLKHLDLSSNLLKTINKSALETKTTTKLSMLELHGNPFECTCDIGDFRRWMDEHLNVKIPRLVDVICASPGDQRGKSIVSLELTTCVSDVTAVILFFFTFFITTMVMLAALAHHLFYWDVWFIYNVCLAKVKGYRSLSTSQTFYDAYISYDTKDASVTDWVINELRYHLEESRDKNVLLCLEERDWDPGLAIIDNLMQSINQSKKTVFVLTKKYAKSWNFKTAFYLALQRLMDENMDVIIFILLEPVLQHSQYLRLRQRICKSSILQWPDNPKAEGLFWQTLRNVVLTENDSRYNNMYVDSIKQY
Source text: HEK293-Blue-hTLR-8 Cells Assay:
A stable HEK293-Blue-hTLR-8 cell line was purchased from InvivoGen (Cat. #: hkb-htlr8, San Diego, Calif., USA). These cells were originally designed for studying the stimulation of human TLR8 by monitoring the activation of NF-κB. A SEAP (secreted embryonic alkaline phosphatase) reporter gene was placed under the control of the IFN-β minimal promoter fused to five NF-κB and AP-1-binding sites. The SEAP was induced by activating NF-κB and AP-1 via stimulating HEK-Blue hTLR8 cells with TLR8 ligands. Therefore the reporter expression was declined by TLR8 antagonist under the stimulation of a ligand, such as R848, for incubation of 20 hrs. The cell culture supernatant SEAP reporter activity was determined using QUANTI-Blue™ kit (Cat. #: rep-qb1, Invivogen, San Diego, Ca, USA) at a wavelength of 640 nm, a detection medium that turns purple or blue in the presence of alkaline phosphatase.
HEK293-Blue-hTLR8 cells were incubated at a density of 250,000-450,000 cells/mL in a volume of 170 μL in a 96-well plate in Dulbecco's Modified Eagle's medium (DMEM) containing 4.5 g/L glucose, 50 U/mL penicillin, […], […], 2 mM L-glutamine, 10% (v/v) heat-inactivated fetal bovine serum with addition of 20 μL test compound in a serial dilution in the presence of final DMSO at 1% and 10 μL of 60 uM R848 in above DMEM, perform incubation under 37° C. in a CO2 incubator for 20 hrs. Then 20 μL of the supernatant from each well was incubated with 180 μL Quanti-blue substrate solution at 37° C. for 2 hrs and the absorbance was read at 620-655 nm using a spectrophotometer. The signaling pathway that TLR8 activation leads to downstream NF-κB activation has been widely accepted, and therefore similar reporter assay was modified for evaluating TLR8 antagonist.

[1] = Human microsomal stability assay; format: in vitro ADME; conditions: human liver microsomes, 1 μM test compound, 0.5 mg/mL protein, 37° C.; low <7.0, medium 7.0-16.2, high 16.2-23.2
Protocol: Human Microsomal Stability Assay
Human liver microsomes (Cat. NO.: 452117, Corning, USA) were preincubated with test compound for 10 minutes at 37° C. in 100 mM potassium phosphate buffer, pH 7.4. The reactions were initiated by adding NADPH regenerating system. The final incubation mixtures contained 1 μM test compound, 0.5 mg/mL liver microsomal protein, 1 mM MgCl2, 1 mM NADP, 1 unit/mL isocitric dehydrogenase and 6 mM isocitric acid in 100 mM potassium phosphate buffer, pH 7.4. After incubation times of 0, 3, 6, 9, 15 and 30 minutes at 37° C., 300 μL of cold ACN (including internal standard) was added to 100 μL incubation mixture to terminate the reaction. Following precipitation and centrifugation, 100 uL supernatant will be taken out and added 300 uL water.
The amount of compound remaining in the samples was determined by LC-MS/MS. Controls of no NADPH regenerating system at zero and 30 minutes were also prepared and analyzed. The results were categorized as: low (<7.0 mL/min/kg), medium (7.0-16.2 mL/min/kg) and high (16.2-23.2 mL/min/kg).

With `C[C@@H]1CN(c2cc(=O)n(C)c3ncccc23)C[C@@H]2c3ccc(N4CCNCC4)cc3CN12` [Example 12, 4-[(4R,10bS)-4-methyl-8-piperazin-1-yl-3,4,6,10b-tetrahydro-1H-pyrazino[2,1-a]isoindol-2-yl]-1-methyl-1,8-naphthyridin-2-one] the IC50 (human TLR8) was 0.8 nM and the “CL (h)” value [1] was 6.2 mL/min/kg.
For `C[C@@H]1CN(c2cc(=O)n(C)c3ncccc23)C[C@@H]2c3ccc(N4CCN[C@@H](C)C4)cc3CN12` [Example 13, 4-[(4R,10bS)-4-methyl-8-[(3S)-3-methylpiperazin-1-yl]-3,4,6,10b-tetrahydro-1H-pyrazino[2,1-a]isoindol-2-yl]-1-methyl-1,8-naphthyridin-2-one], the IC50 (human TLR8) was 1.3 nM and the “CL (h)” value [1] was 7.9 mL/min/kg.
In the case of `C[C@@H]1CN(c2cc(=O)n(C)c3ncccc23)C[C@@H]2c3ccc(N4CCC[C@](C)(N)C4)cc3CN12` [Example 15, 4-[(4R,10bS)-8-[(3S)-3-amino-3-methyl-1-piperidyl]-4-methyl-3,4,6,10b-tetrahydro-1H-pyrazino[2,1-a]isoindol-2-yl]-1-methyl-1,8-naphthyridin-2-one], the IC50 (human TLR8) is reported as 7.2 nM and the “CL (h)” value [1] is reported as 8.0 mL/min/kg.
In the case of `C[C@@H]1CN(c2cc(=O)n(C)c3ncccc23)C[C@@H]2c3ccc(N4CCC[C@@H](N)C4)cc3CN12` [Example 16, 4-[(4R,10bS)-8-[(3R)-3-amino-1-piperidyl]-4-methyl-3,4,6,10b-tetrahydro-1H-pyrazino[2,1-a]isoindol-2-yl]-1-methyl-1,8-naphthyridin-2-one], the IC50 (human TLR8) is reported as 3.9 nM and the “CL (h)” value [1] is reported as 8.5 mL/min/kg.
In the case of `C[C@@H]1CN(c2cc(=O)n(C)c3ncccc23)C[C@@H]2c3ccc(N4CCC(C)(N)CC4)cc3CN12` [Example 18, 4-[(4R,10bS)-8-(4-amino-4-methyl-1-piperidyl)-4-methyl-3,4,6,10b-tetrahydro-1H-pyrazino[2,1-a]isoindol-2-yl]-1-methyl-1,8-naphthyridin-2-one], the IC50 (human TLR8) is reported as 2.5 nM and the “CL (h)” value [1] is reported as 6.2 mL/min/kg.
With `C[C@@H]1CN(c2cc(=O)n(C)c3ncccc23)C[C@@H]2c3ccc(N4C[C@@H]5C[C@H]4CN5)cc3CN12` [Example 19, 4-[(4R,10bS)-8-[(1S,4S)-2,5-diazabicyclo[2.2.1]heptan-2-yl]-4-methyl-3,4,6,10b-tetrahydro-1H-pyrazino[2,1-a]isoindol-2-yl]-1-methyl-1,8-naphthyridin-2-one] the IC50 (human TLR8) was 11.3 nM and the “CL (h)” value [1] was 6.2 mL/min/kg.
For `C[C@@H]1CN(c2cc(=O)n(C)c3ncccc23)C[C@@H]2c3ccc(N4C[C@H]5C[C@@H]4CN5)cc3CN12` [Example 20, 4-[(4R,10bS)-8-[(1R,4R)-2,5-diazabicyclo[2.2.1]heptan-2-yl]-4-methyl-3,4,6,10b-tetrahydro-1H-pyrazino[2,1-a]isoindol-2-yl]-1-methyl-1,8-naphthyridin-2-one], the IC50 (human TLR8) was 4.5 nM and the “CL (h)” value [1] was 6.2 mL/min/kg.
In the case of `C[C@@H]1CN(c2cc(=O)n(C)c3ncccc23)C[C@@H]2c3ccc(N4CC5CCC(C4)N5)cc3CN12` [Example 21, 4-[(4R,10bS)-8-(3,8-diazabicyclo[3.2.1]octan-3-yl)-4-methyl-3,4,6,10b-tetrahydro-1H-pyrazino[2,1-a]isoindol-2-yl]-1-methyl-1,8-naphthyridin-2-one], the IC50 (human TLR8) is reported as 1.8 nM and the “CL (h)” value [1] is reported as 6.4 mL/min/kg.
With `C[C@@H]1CN(c2cc(=O)n(C)c3ncccc23)C[C@@H]2c3ccc(OCCN(C)C)cc3CN12` [Example 23, 4-[(4R,10bS)-8-[2-(dimethylamino)ethoxy]-4-methyl-3,4,6,10b-tetrahydro-1H-pyrazino[2,1-a]isoindol-2-yl]-1-methyl-1,8-naphthyridin-2-one] the IC50 (human TLR8) was 1 nM and the “CL (h)” value [1] was 6.2 mL/min/kg.
With `C[C@@H]1CN(c2cc(=O)n(C)c3ncccc23)C[C@@H]2c3ccc(C4CCNCC4)cc3CN12` [Example 24, 4-[(4R,10bS)-4-methyl-8-(4-piperidyl)-3,4,6,10b-tetrahydro-1H-pyrazino[2,1-a]isoindol-2-yl]-1-methyl-1,8-naphthyridin-2-one] the IC50 (human TLR8) was 1.4 nM and the “CL (h)” value [1] was 6.2 mL/min/kg.
With `C[C@@H]1CN(c2cc(=O)n(C)c3ncccc23)C[C@@H]2c3ccc(C4CCCNC4)cc3CN12` (stereo partly drawn) [Example 25, 4-[(4R,10bS)-4-methyl-8-(3-piperidyl)-3,4,6,10b-tetrahydro-1H-pyrazino[2,1-a]isoindol-2-yl]-1-methyl-1,8-naphthyridin-2-one] the IC50 (human TLR8) was 2.6 nM and the “CL (h)” value [1] was 6.2 mL/min/kg.
With `C[C@@H]1CN(c2cc(=O)n(C)c3ncccc23)C[C@@H]2c3ccc(C4CCNC4)cc3CN12` (stereo partly drawn) [Example 26, 4-[(4R,10bS)-4-methyl-8-pyrrolidin-3-yl-3,4,6,10b-tetrahydro-1H-pyrazino[2,1-a]isoindol-2-yl]-1-methyl-1,8-naphthyridin-2-one] the IC50 (human TLR8) was 6.5 nM and the “CL (h)” value [1] was 9.8 mL/min/kg.
In the case of `C[C@@H]1CN(c2cc(=O)n(C)c3ncccc23)C[C@@H]2c3ccc([C@H]4CC[C@H](N5CCOCC5)CC4)cc3CN12` [Example 27A, 4-[(4R,10bS)-4-methyl-8-(trans-4-morpholinocyclohexyl)-3,4,6,10b-tetrahydro-1H-pyrazino[2,1-a]isoindol-2-yl]-1-methyl-1,8-naphthyridin-2-one], the IC50 (human TLR8) is reported as 2 nM and the “CL (h)” value [1] is reported as 7.3 mL/min/kg.
For `C[C@@H]1CN(c2cc(=O)n(C)c3ncccc23)C[C@@H]2c3ccc([C@H]4C[C@H]5COC[C@@H](C4)N5)cc3CN12` [Example 28A, 4-[(4R,10bS)-4-methyl-8-(endo-3-oxa-9-azabicyclo[3.3.1]nonan-7-yl)-3,4,6,10b-tetrahydro-1H-pyrazino[2,1-a]isoindol-2-yl]-1-methyl-1,8-naphthyridin-2-one], the IC50 (human TLR8) was 1.7 nM and the “CL (h)” value [1] was 9.2 mL/min/kg.
In the case of `CCn1c(=O)cc(N2C[C@@H](C)N3Cc4cc(N5C[C@@H](N)[C@H](OC)C5)ccc4[C@H]3C2)c2cccnc21` [Example 29, 4-[(4R,10bS)-8-[(3R,4R)-3-amino-4-methoxy-pyrrolidin-1-yl]-4-methyl-3,4,6,10b-tetrahydro-1H-pyrazino[2,1-a]isoindol-2-yl]-1-ethyl-1,8-naphthyridin-2-one], the IC50 (human TLR8) is reported as 26.3 nM and the “CL (h)” value [1] is reported as 6.4 mL/min/kg.
